Reference: US9493444B2 (Merck Patent GmbH, priority 2012, dated 2016)
pIC50: −log10 of the molar value.

test system: Wnt pathway (TCF-dependent transcription in HEK293 luciferase reporter cell line with ER-DSH construct); assay: Cellular assay for Wnt pathway activity (luciferase reporter); type: cell-based; conditions: Homo sapiens; Wnt pathway inhibition, HEK293 luciferase reporter cells (ER-DSH, TCF promoter), 24 hours incubation, estrogen-induced
How it was run: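 Luminescent luciferase read-out after 24 h compound exposure at 1 nM to 30 μM, with TCF-driven transcription switched on by estrogen addition. IC50 values come from curve fits of data normalized against the vehicle-only control.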

Row | SMILES | pIC50
1 | CC(=O)Nc1cccc(-c2ccc(Oc3cncc(CCCN(C)C(C)=O)n3)cc2)n1 [Compound 218, N-(3-{6-[4-(6-Acetylamino-pyridin-2-yl)-phenoxy]-pyrazin-2-yl}-propyl)-N-methyl-acetamide] | 6.00 to 6.70
2 | CC(=O)Nc1ccc(-c2ccc(Oc3cncc(CCCN(C)C(C)=O)n3)cc2)cn1 [Compound 219, N-(3-{6-[4-(6-Acetylamino-pyridin-3-yl)-phenoxy]-pyrazin-2-yl}-propyl)-N-methyl-acetamide] | 6.00 to 6.70
3 | CC(=O)N(C)CCCc1cncc(Oc2ccc(-c3ccc(F)cn3)cc2)n1 [Compound 220, N-(3-{6-[4-(5-Fluoro-pyridin-2-yl)-phenoxy]-pyrazin-2-yl}-propyl)-N-methyl-acetamide] | 5.00 to 6.00
4 | COc1ccc(-c2ccc(Oc3cncc(CCCN(C)C(C)=O)n3)cc2)nc1 [Compound 221, N-(3-{6-[4-(5-Methoxy-pyridin-2-yl)-phenoxy]-pyrazin-2-yl}-propyl)-N-methyl-acetamide] | 6.00 to 6.70
5 | CC(=O)N(C)CCN(C)c1cncc(Oc2cnn(-c3cccc(C(F)(F)F)c3)c2)n1 [Compound 222, N-Methyl-N-[2-(methyl-{6-[1-(3-trifluoromethyl-phenyl)-1H-pyrazol-4-yloxy]-pyrazin-2-yl}-amino)-ethyl]-acetamide] | 5.00 to 6.00
6 | CC(=O)N(C)CCN(C)c1cncc(OC2Cc3ccccc3C2)n1 [Compound 223, N-(2-{[6-(Indan-2-yloxy)-pyrazin-2-yl]-methyl-amino}-ethyl)-N-methyl-acetamide] | 6.00 to 6.70
7 | CC(=O)N(C)CCN(C)c1cncc(Oc2noc3ccccc23)n1 [Compound 224, N-(2-{[6-(Benzo[d]isoxazol-3-yloxy)-pyrazin-2-yl]-methyl-amino}-ethyl)-N-methyl-acetamide] | > 6.70
8 | CC(=O)Nc1ccc(-c2ccc(Oc3cncc(N(C)CCN(C)C(C)=O)n3)c(F)c2)cn1 [Compound 225, N-[2-({6-[4-(6-Acetylamino-pyridin-3-yl)-2-fluoro-phenoxy]-pyrazin-2-yl}-methyl-amino)-ethyl]-N-methyl-acetamide] | > 6.70
9 | CC(=O)N(C)CCN(C)c1cncc(Oc2ccc(-c3ccc(F)cn3)cc2F)n1 [Compound 226, N-[2-({6-[2-Fluoro-4-(5-fluoro-pyridin-2-yl)-phenoxy]-pyrazin-2-yl}-methyl-amino)-ethyl]-N-methyl-acetamide] | > 6.70
10 | COc1ccc(-c2ccc(Oc3cncc(N(C)CCN(C)C(C)=O)n3)c(F)c2)nc1 [Compound 227, N-[2-({6-[2-Fluoro-4-(5-methoxy-pyridin-2-yl)-phenoxy]-pyrazin-2-yl}-methyl-amino)-ethyl]-N-methyl-acetamide] | > 6.70
11 | CC(=O)N(C)CCN(C)c1cncc(Oc2ccc(-c3ccncc3C#N)cc2F)n1 [Compound 228, N-[2-({6-[4-(3-Cyano-pyridin-4-yl)-2-fluoro-phenoxy]-pyrazin-2-yl}-methyl-amino)-ethyl]-N-methyl-acetamide] | > 6.70
12 | CC(=O)N(C)CCN(C)c1cncc(Oc2ccc(-c3ccc(C)cn3)cc2F)n1 [Compound 229, N-[2-({6-[2-Fluoro-4-(5-methyl-pyridin-2-yl)-phenoxy]-pyrazin-2-yl}-methyl-amino)-ethyl]-N-methyl-acetamide] | > 6.70
13 | CC(=O)Nc1ccc(-c2ccc(Oc3cncc(N(C)CCN(C)C(C)=O)n3)c(F)c2)nc1 [Compound 230, N-{6-[4-(6-{[2-(Acetyl-methyl-amino)-ethyl]-methyl-amino}-pyrazin-2-yloxy)-3-fluoro-phenyl]-pyridin-3-yl}-acetamide] | > 6.70
14 | CC(=O)N(C)CCN(C)c1cncc(Oc2ccc(C(=O)Nc3cccnc3)cc2)n1 [Compound 231, 4-(6-{[2-(Acetyl-methyl-amino)-ethyl]-methyl-amino}-pyrazin-2-yloxy)-N-pyridin-3-yl-benzamide] | > 6.70
15 | CC(=O)N(C)CCN(C)c1cncc(Oc2ccc(CCC#N)cc2)n1 [Compound 232, N-[2-({6-[4-(2-Cyano-ethyl)-phenoxy]-pyrazin-2-yl}-methyl-amino)-ethyl]-N-methyl-acetamide] | > 6.70
16 | CC(=O)N(C)CCNc1cncc(Oc2ccc(-c3ccc(N4CCOCC4)nc3)cc2)n1 [Compound 233, N-Methyl-N-(2-{6-[4-(6-morpholin-4-yl-pyridin-3-yl)-phenoxy]-pyrazin-2-ylamino}-ethyl)-acetamide] | 5.00 to 6.00
17 | CC(=O)N(C)CCNc1cncc(Oc2ccc(-c3cccc(N4CCN(C)CC4)n3)cc2)n1 [Compound 234, N-Methyl-N-[2-(6-{4-[6-(4-methyl-piperazin-1-yl)-pyridin-2-yl]-phenoxy}-pyrazin-2-ylamino)-ethyl]-acetamide] | > 6.70
18 | CC(=O)Nc1cccc(-c2ccc(Oc3cncc(NCCN(C)C(C)=O)n3)cc2)n1 [Compound 235, N-(2-{6-[4-(6-Acetylamino-pyridin-2-yl)-phenoxy]-pyrazin-2-ylamino}-ethyl)-N-methyl-acetamide] | 6.00 to 6.70

Row | SMILES | pIC50
19 | CC(=O)N(C)CCN(C)c1cncc(Oc2ccc(-c3c(F)c(F)nc(F)c3F)cc2)n1 [Compound 236, N-Methyl-N-[2-(methyl-{6-[4-(2,3,5,6-tetrafluoro-pyridin-4-yl)-phenoxy]-pyrazin-2-yl}-amino)-ethyl]-acetamide] | > 6.70
20 | CC(=O)N(C)CCN(C)c1cncc(Oc2ccc(-c3cncc4[nH]ccc34)cc2)n1 [Compound 237, N-Methyl-N-[2-(methyl-{6-[4-(1H-pyrrolo[2,3-c]pyridin-4-yl)-phenoxy]-pyrazin-2-yl}-amino)-ethyl]-acetamide] | 6.00 to 6.70
21 | CC(=O)N(C)CCN(C)c1cncc(Oc2ccc(-c3cnc(N)cn3)cc2F)n1 [Compound 238, N-[2-({6-[4-(5-Amino-pyrazin-2-yl)-2-fluoro-phenoxy]-pyrazin-2-yl}-methyl-amino)-ethyl]-N-methyl-acetamide] | > 6.70
22 | CC(=O)N(C)CCN(C)c1cncc(Oc2ccc(-c3ccc(N4CCOCC4)nc3)cc2F)n1 [Compound 239, N-[2-({6-[2-Fluoro-4-(6-morpholin-4-yl-pyridin-3-yl)-phenoxy]-pyrazin-2-yl}-methyl-amino)-ethyl]-N-methyl-acetamide] | > 6.70
23 | COc1ccc(-c2ccc(Oc3cncc(NCCN(C)C(C)=O)n3)cc2)nc1 [Compound 240, N-(2-{6-[4-(5-Methoxy-pyridin-2-yl)-phenoxy]-pyrazin-2-ylamino}-ethyl)-N-methyl-acetamide] | 6.00 to 6.70
24 | CC(=O)N(C)CCNc1cncc(Oc2ccc(-c3cnc(N)cn3)cc2)n1 [Compound 241, N-(2-{6-[4-(5-Amino-pyrazin-2-yl)-phenoxy]-pyrazin-2-ylamino}-ethyl)-N-methyl-acetamide] | 5.00 to 6.00
25 | CC(=O)N(C)CCNc1cncc(Oc2ccc(-c3ccncc3C#N)cc2)n1 [Compound 242, N-(2-{6-[4-(3-Cyano-pyridin-4-yl)-phenoxy]-pyrazin-2-ylamino}-ethyl)-N-methyl-acetamide] | 5.00 to 6.00
26 | COc1cc(C(C)=O)ccc1Oc1cncc(N(C)CCN(C)C(C)=O)n1 [Compound 243, N-(2-{[6-(4-Acetyl-2-methoxy-phenoxy)-pyrazin-2-yl]-methyl-amino}-ethyl)-N-methyl-acetamide] | 5.00 to 6.00
27 | C#CCOC(=O)Nc1ccc(-c2ccc(Oc3cncc(N(C)CCN(C)C(C)=O)n3)cc2)nc1 [Compound 244, {6-[4-(6-{[2-(Acetyl-methyl-amino)-ethyl]-methyl-amino}-pyrazin-2-yloxy)-phenyl]-pyridin-3-yl}-carbamic acid prop-2-ynyl ester] | > 6.70
28 | CC(=O)N(C)CCN(C)c1cncc(Oc2ccc(-c3ccc(N4CCNCC4)nc3)cc2)n1 [Compound 245, N-Methyl-N-[2-(methyl-{6-[4-(6-piperazin-1-yl-pyridin-3-yl)-phenoxy]-pyrazin-2-yl}-amino)-ethyl]-acetamide] | > 6.70
29 | CC(=O)N(C)CCN(C)c1cncc(Oc2ccc(C)nc2)n1 [Compound 246, N-Methyl-N-(2-{methyl-[6-(6-methyl-pyridin-3-yloxy)-pyrazin-2-yl]-amino}-ethyl)-acetamide] | 5.00 to 6.00
30 | CNC(=O)CCN(C)c1cncc(Oc2ccc(-c3ccc(C)cn3)cc2)n1 [Compound 247, N-Methyl-3-(methyl-{6-[4-(5-methyl-pyridin-2-yl)-phenoxy]-pyrazin-2-yl}-amino)-propionamide] | > 6.70
31 | CC(=O)N(C)CCN(C)c1cncc(Oc2ccc(Br)c(F)c2F)n1 [Compound 248, N-(2-{[6-(4-Bromo-2,3-difluoro-phenoxy)-pyrazin-2-yl]-methyl-amino}-ethyl)-N-methyl-acetamide] | 6.00 to 6.70
32 | CC(=O)N(C)CCN(C)c1cncc(Oc2ccc(-c3ccc(Cl)cc3)c(F)c2F)n1 [Compound 249, N-(2-{[6-(4′-Chloro-2,3-difluoro-biphenyl-4-yloxy)-pyrazin-2-yl]-methyl-amino}-ethyl)-N-methyl-acetamide] | 6.00 to 6.70
33 | CC(=O)N(C)CCN(C)c1cncc(Oc2cnc3[nH]ccc3c2)n1 [Compound 250, N-Methyl-N-(2-{methyl-[6-(1H-pyrrolo[2,3-b]pyridin-5-yloxy)-pyrazin-2-yl]-amino}-ethyl)-acetamide] | 5.00 to 6.00
34 | CC(=O)N(C)CCN(C)c1cncc(Oc2ccc(-c3ccc(CCN)cc3)cc2)n1 [Compound 251, N-[2-({6-[4′-(2-Amino-ethyl)-biphenyl-4-yloxy]-pyrazin-2-yl}-methyl-amino)-ethyl]-N-methyl-acetamide] | > 6.70
35 | CC(=O)N(C)CCN(C)c1cncc(Oc2ccc(-c3cc(Br)cnc3N)cc2)n1 [Compound 252, N-[2-({6-[4-(2-Amino-5-bromo-pyridin-3-yl)-phenoxy]-pyrazin-2-yl}-methyl-amino)-ethyl]-N-methyl-acetamide] | 6.00 to 6.70
36 | CC(=O)N(C)CCN(C)c1cncc(Oc2ccc(-c3cccc(N4CCN(C)CC4)n3)cc2F)n1 [Compound 253, N-{2-[(6-{2-Fluoro-4-[6-(4-methyl-piperazin-1-yl)-pyridin-2-yl]-phenoxy}-pyrazin-2-yl)-methyl-amino]-ethyl}-N-methyl-acetamide] | > 6.70
